In patent EP2921553B1, “Enzymatic reactor system” (Leibniz-Institut für Polymerforschung Dresden e.V., priority 2014, dated 2015):

Assays:
[1] = target: T1, S-Acetyl-coenzyme A synthetase (EC 6.2.1.1) from baker's yeast, Immobilized enzyme (PNIPAm-AEMA) (Saccharomyces cerevisiae, UniProt Q01574); experiment: Reaction kinetics of PNIPAm-AEMA-immobilized Acetyl CoA-synthetase for acetate (pyrophosphate-molybdate assay, Table 1); assay type: biochemical; settings: acetate substrate at 37°C; ATP 1 mM, CoA 0.5 mM; enzyme covalently immobilized on PNIPAm-AEMA microgel
T1 construct: purchased Sigma-Aldrich (Germany)
T1 sequence (Q01574 1-713): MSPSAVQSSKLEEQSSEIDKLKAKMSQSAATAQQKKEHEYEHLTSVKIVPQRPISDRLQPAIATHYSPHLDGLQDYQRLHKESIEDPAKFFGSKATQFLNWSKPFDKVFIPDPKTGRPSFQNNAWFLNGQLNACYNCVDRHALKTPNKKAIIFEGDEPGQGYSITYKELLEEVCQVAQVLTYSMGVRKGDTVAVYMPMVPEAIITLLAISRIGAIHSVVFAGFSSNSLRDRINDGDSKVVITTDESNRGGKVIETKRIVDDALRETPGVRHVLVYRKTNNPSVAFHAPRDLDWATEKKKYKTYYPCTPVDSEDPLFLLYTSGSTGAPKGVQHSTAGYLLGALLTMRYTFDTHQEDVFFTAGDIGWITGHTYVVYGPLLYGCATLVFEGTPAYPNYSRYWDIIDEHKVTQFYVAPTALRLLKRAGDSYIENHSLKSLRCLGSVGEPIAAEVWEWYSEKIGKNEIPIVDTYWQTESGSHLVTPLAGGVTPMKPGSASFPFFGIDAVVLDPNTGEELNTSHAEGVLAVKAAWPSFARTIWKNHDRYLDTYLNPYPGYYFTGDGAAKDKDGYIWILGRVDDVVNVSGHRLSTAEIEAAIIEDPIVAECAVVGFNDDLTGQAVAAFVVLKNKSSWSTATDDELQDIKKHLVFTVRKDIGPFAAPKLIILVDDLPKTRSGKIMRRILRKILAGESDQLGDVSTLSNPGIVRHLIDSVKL
Method: Acetyl CoA-synthetase was covalently immobilized to PNIPAm-AEMA core-shell microgel using carbodiimide chemistry in 0.1 M Borate buffer at pH 8. Inorganic phosphate present in commercial enzyme preparation (interferes with molybdate assay) was removed by filtration using 30 kDa centrifuge filter tubes (Millipore).
The activity of free acetyl CoA synthetase and their bioconjugates with PNIPAm-AEMA or microgel was studied in borate buffer (0.1 M, pH 8), in presence of 20 mM potassium acetate, 4 mM MgCl2, 4 mM glutathione, 1 mM ATP, and 500 µM coenzyme A. The reaction was terminated by addition of acidic molybdate reagent. The pyrophosphate-molybdate complex formed was further reduced by addition of mercaptoethanol and Eikonogen reagent. The obtained coloured product was quantified by measuring the absorption at 590 nm and pyrophosphate concentration was determined (ε = 2.7 x 10^4 M^-1 cm^-1). […]
(§1) Assuming Michaelis-Menten kinetics for Acetyl CoA-synthetase by the following equations: V = (Vmax [S])/(Km + [S]) [formula] where V is the rate of the reaction, [S] is the concentration of the substrate, Km is the apparent constant, and Vmax is the maximum of reaction velocity. The values for Km and Vmax, were estimated with the help of a Lineweaver-Burk plot for the Michaelis-Menten equation expressed as follows: (1)/(V) = (Km)/(Vmax)[…](1)/([S]) + (1)/(Vmax) [formula] […]

[2] = target: T2, S-Acetyl-coenzyme A synthetase (EC 6.2.1.1) from baker's yeast, Immobilized enzyme (PEI-PNIPAm) (Saccharomyces cerevisiae, UniProt Q01574); experiment: Reaction kinetics of PEI-PNIPAm-immobilized Acetyl CoA-synthetase for acetate (citrate synthase/malate dehydrogenase coupled assay, Table 2); assay type: biochemical; settings: acetate substrate at 37°C; ATP 1 mM, CoA 0.5 mM; enzyme adsorbed on PEI-PNIPAm microgel
T2 construct: purchased Sigma-Aldrich (Germany)
T2 sequence (Q01574 1-713): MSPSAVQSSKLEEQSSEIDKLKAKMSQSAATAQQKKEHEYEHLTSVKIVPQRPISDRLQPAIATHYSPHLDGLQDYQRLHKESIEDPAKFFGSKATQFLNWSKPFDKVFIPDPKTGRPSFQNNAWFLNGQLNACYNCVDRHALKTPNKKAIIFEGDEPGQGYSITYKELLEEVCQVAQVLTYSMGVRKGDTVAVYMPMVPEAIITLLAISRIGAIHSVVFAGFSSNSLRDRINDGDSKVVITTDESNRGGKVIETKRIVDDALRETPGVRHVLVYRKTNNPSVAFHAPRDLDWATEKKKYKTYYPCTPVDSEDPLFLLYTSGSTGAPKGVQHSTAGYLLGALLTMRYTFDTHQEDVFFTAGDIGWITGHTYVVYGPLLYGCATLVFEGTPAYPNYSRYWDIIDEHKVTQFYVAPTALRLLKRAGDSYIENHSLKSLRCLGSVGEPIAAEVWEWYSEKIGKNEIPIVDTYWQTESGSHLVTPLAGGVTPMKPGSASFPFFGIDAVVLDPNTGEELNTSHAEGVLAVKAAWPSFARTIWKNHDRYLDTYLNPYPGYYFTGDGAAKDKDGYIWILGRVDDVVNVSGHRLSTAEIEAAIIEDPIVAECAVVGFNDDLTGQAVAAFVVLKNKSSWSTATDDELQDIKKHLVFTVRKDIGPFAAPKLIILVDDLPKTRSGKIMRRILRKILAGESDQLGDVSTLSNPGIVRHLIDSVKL
Method: The immobilization of Acetyl CoA-synthetase on PEI-PNIPAm microgel was achieved via adsorption in 0.1 M Tris-CI buffer at pH 8 for 6 h at 4°C. The conjugate was obtained by centrifugation at 12,000 rpm for 15 min at 25°C and subsequently washed with the same buffer to remove non adsorbed enzymes. Using Micro BCA (for protein concentrations lower than 20 µg/mL) assay kits, the amounts of adsorbed enzyme loaded to the microgel was determined by subtracting the residual protein content in the supernatant from the initial protein content. The enzyme and conjugate were stored in 0.1 M Borate buffer containing 1 mM glutathione and 1 mM magnesium chloride pH 8 for further use.
The activity of free and immobilized Acs was determined spectrophotometrically by following acetyl CoA synthesis at 340 nm wavelength by coupling to Citrate synthase (CS) and malate dehydrogenase (MDH) assay. […]
as §1

[3] = target: T3, S-Acetyl-coenzyme A synthetase (EC 6.2.1.1) from baker's yeast, free enzyme (Saccharomyces cerevisiae, UniProt Q01574); experiment: Reaction kinetics of free Acetyl CoA-synthetase for acetate (pyrophosphate-molybdate assay, Table 1); assay type: biochemical; settings: acetate substrate at 37°C, ATP 1 mM, CoA 0.5 mM, Lineweaver-Burk plot
T3 construct: purchased Sigma-Aldrich (Germany)
T3 sequence (Q01574 1-713): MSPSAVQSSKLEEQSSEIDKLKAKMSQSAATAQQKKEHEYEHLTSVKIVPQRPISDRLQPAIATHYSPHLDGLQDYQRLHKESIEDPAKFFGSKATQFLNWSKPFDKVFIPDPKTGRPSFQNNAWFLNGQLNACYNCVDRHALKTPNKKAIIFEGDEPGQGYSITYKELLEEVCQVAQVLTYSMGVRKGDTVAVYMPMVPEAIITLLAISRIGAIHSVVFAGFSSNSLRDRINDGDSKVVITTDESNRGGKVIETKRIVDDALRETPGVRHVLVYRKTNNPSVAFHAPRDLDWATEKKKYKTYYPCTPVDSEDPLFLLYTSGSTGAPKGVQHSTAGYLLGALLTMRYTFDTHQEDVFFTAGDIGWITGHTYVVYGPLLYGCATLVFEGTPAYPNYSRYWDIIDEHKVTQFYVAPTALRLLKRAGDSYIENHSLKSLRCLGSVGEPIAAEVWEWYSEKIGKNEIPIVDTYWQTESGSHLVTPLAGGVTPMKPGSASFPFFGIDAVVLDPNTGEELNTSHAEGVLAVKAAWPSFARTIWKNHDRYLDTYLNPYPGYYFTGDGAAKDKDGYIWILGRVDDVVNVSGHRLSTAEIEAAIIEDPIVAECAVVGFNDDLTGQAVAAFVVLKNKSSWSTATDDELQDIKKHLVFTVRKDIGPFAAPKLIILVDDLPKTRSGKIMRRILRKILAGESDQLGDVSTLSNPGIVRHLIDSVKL
Method: (§2) The activity of free acetyl CoA synthetase and their bioconjugates with PNIPAm-AEMA or microgel was studied in borate buffer (0.1 M, pH 8), in presence of 20 mM potassium acetate, 4 mM MgCl2, 4 mM glutathione, 1 mM ATP, and 500 µM coenzyme A. The reaction was terminated by addition of acidic molybdate reagent. The pyrophosphate-molybdate complex formed was further reduced by addition of mercaptoethanol and Eikonogen reagent. The obtained coloured product was quantified by measuring the absorption at 590 nm and pyrophosphate concentration was determined (ε = 2.7 x 10^4 M^-1 cm^-1).
(§3) One unit of enzyme activity was defined as the amount of enzyme required to form 1 µmol pyrophosphate per min at pH 8 and 37°C. Bradford micro assay with a sensitivity of 1-10 µg/mL was used to determine protein concentration using bovine serum albumin as the standard protein. […]
as §1

[4] = target: T3, S-Acetyl-coenzyme A synthetase (EC 6.2.1.1) from baker's yeast, free enzyme; experiment: Reaction kinetics of free Acetyl CoA-synthetase for acetate (citrate synthase/malate dehydrogenase coupled assay, Table 2); assay type: biochemical; settings: acetate substrate at 37°C, ATP 1 mM, CoA 0.5 mM, Lineweaver-Burk plot
Method: The activity of free and immobilized Acs was determined spectrophotometrically by following acetyl CoA synthesis at 340 nm wavelength by coupling to Citrate synthase (CS) and malate dehydrogenase (MDH) assay.
The assay medium composition for enzyme activity consists of 20 mM potassium acetate, 4 mM MgCl, 4 mM glutathione, 1 mM ATP, 500 µM co-enzyme A, 1 mM NAD and 4 mM malate in 100mM Tris Cl buffer pH 8. The acetyl CoA synthesized was correlated to the concentration of NADH formed in a coupled assay using […]. One unit of enzyme activity was defined as the amount of enzyme which is required to form 1 µmol of NADH per min at pH 8 and 37°C.
The reaction kinetics of free and immobilized enzymes was studied at various concentrations of acetate (5 mM - 0.3 mM) as a substrate and keeping concentrations of ATP and CoA constant at 1 mM and 0.5 mM, respectively. […]
as §1

[5] = substrate: CC(=O)O; experiment: Reaction kinetics of free Acetyl CoA-synthetase for acetate (pyrophosphate-molybdate assay, Table 1); assay type: biochemical, Saccharomyces cerevisiae; settings: other: acetate substrate at 37°C, acetate 5 mM - 0.3 mM, ATP 1 mM, CoA 0.5 mM, Lineweaver-Burk plot, free enzyme, pH 8.0
Method: as §2, §3, §1

## CC(=O)O [acetate]
[1]
  Vmax: 5.6 x10^-3± 0.1x10^-3 U/min
[2]
  Vmax: 44 x10^-3± 2 x10^-3 U/min
[3]
  Vmax: 8.5x10^-3 ± 0.4x10^-3 U/min
[4]
  Vmax: 16x10^-3 ± 1 x10^-3 U/min

B1: S-Acetyl-coenzyme A synthetase (EC 6.2.1.1) from baker's yeast, free enzyme (Saccharomyces cerevisiae S288C) (protein)
chain: MSPSAVQSSKLEEQSSEIDKLKAKMSQSAATAQQKKEHEYEHLTSVKIVPQRPISDRLQPAIATHYSPHLDGLQDYQRLHKESIEDPAKFFGSKATQFLNWSKPFDKVFIPDPKTGRPSFQNNAWFLNGQLNACYNCVDRHALKTPNKKAIIFEGDEPGQGYSITYKELLEEVCQVAQVLTYSMGVRKGDTVAVYMPMVPEAIITLLAISRIGAIHSVVFAGFSSNSLRDRINDGDSKVVITTDESNRGGKVIETKRIVDDALRETPGVRHVLVYRKTNNPSVAFHAPRDLDWATEKKKYKTYYPCTPVDSEDPLFLLYTSGSTGAPKGVQHSTAGYLLGALLTMRYTFDTHQEDVFFTAGDIGWITGHTYVVYGPLLYGCATLVFEGTPAYPNYSRYWDIIDEHKVTQFYVAPTALRLLKRAGDSYIENHSLKSLRCLGSVGEPIAAEVWEWYSEKIGKNEIPIVDTYWQTESGSHLVTPLAGGVTPMKPGSASFPFFGIDAVVLDPNTGEELNTSHAEGVLAVKAAWPSFARTIWKNHDRYLDTYLNPYPGYYFTGDGAAKDKDGYIWILGRVDDVVNVSGHRLSTAEIEAAIIEDPIVAECAVVGFNDDLTGQAVAAFVVLKNKSSWSTATDDELQDIKKHLVFTVRKDIGPFAAPKLIILVDDLPKTRSGKIMRRILRKILAGESDQLGDVSTLSNPGIVRHLIDSVKL
notes: purchased Sigma-Aldrich (Germany)
[5]
  Km: 170 ± 30 µM
